Measurements published in patent US20170095565A1, “CHEMICALLY MODIFIED SMALL MOLECULES” (Nektar Therapeutics, priority 2003, published 2017).
In brackets after ≈: the same amount, converted by molar mass. Like-named read-outs stand apart in the source and are kept apart here.

How the values were obtained:
[1] = In situ brain perfusion, blood-brain barrier uptake; conditions: for Normalized Brain Uptake Rate (Mean ± SD): normalized to 5 μM dosing solution, 20 mL/min perfusion rate, 30 sec; for Reduction in brain uptake rate (BUR) compared to the parent compound (factor / times): vs parent drug
Description: As utilized for these experiments, the in situ brain perfusion technique employed the intact rat brain to (i) determine drug permeation across the BBB under normal physiological conditions, and (ii) to study transport mechanisms such as passive diffusion verses carrier mediated transport.
Perfusion was performed using the single time-point method. Briefly, the perfusion fluid (perfusate) containing the test compound(s) was infused into rats via the left external carotid artery at a constant rate by an infusion pump (20 mL/min). Perfusion flow rate was set to completely take over fluid flow to the brain at normal physiologic pressure (80-120 mm Hg). The duration of the perfusion was 30 seconds. Immediately following the perfusion, the brain vasculature was perfused for an additional 30 seconds with drug-free perfusate to remove residual drug. The pump was turned off and the brain was then immediately removed from the skull. Left-brain samples from each rat were first weighed and then homogenized using a Polytron homogenizer. Four (4) mL of 20% methanol was added to each rat brain for homogenization. After homogenization, the total volume of homogenate was measured and recorded.
A measured amount of the homogenate was diluted with organic solvent and subsequently centrifuged. The supernatant was removed, evaporated in a stream of nitrogen and reconstituted and analyzed by LC/MS/MS. Quantification of drug concentrations in brain homogenate was performed against calibration curves generated by spiking the drugs into blank (i.e. drug-free) brain homogenate. Analysis of the drug concentrations in brain homogenates was carried out in triplicate, and the values were used to calculate the brain uptake rate in pmole per gram of rat brain per second of perfusion.
All the data was normalized to a 5 μM dosing solution at 20 mL/min perfusion rate for 30 sec.

μ-Opiate Receptors = μ-Opiate Receptors (Homo sapiens, UniProt P35372); assay: biochemical; assay type: biochemical
Description: In the table above, for each compound, the bioactivity is provided as a measure of the relative bioactivity of each of the various PEG conjugates in comparison to parent drug. The EC50 is the concentration of agonist that provokes a response halfway between the baseline and maximum response in a standard dose-response curve.

[2] = Oral bioavailability: plasma concentration after oral gavage; assay type: in vivo, Sprague Dawley rats; conditions: rats
Description: Female Sprague Dawley® rats (150-200 g) were obtained from Harlan Labs. […] The animals were fasted overnight (day −1), but water was provided ad libitum.
On the morning of dosing (day 0), each rat was weighed and the cannulas flushed with heparin (1000 U/mL). With the aid of a feeding tube, the animals were then dosed orally (gavage) with aqueous formulations containing either the PEGylated or the free drug. The dose was determined on a mg/kg body weight basis. […] At specific time intervals (1, 2 and 4 hours), blood samples (approximately 1.0 mL) were removed through the cannula, placed in 1.5 mL centrifuge tubes containing 14 μL of heparin, mixed and centrifuged to separate the plasma. The plasma samples were frozen (<−70° C.) until assayed. The plasma samples were purified by a precipitation technique and the analyte extracted and assayed using a high performance liquid chromatography (LC) method with a mass selective detector (MSD). […] When appropriate, an internal standard was used in the analysis.

[3] = Solubility of tested compounds (Table 1)
Mu-opiate = Mu-opiate (Homo sapiens, UniProt P35372); conditions: read-out: IC50, Mu-opiate binding activity
[4] = PEGylated compounds normalized to 1 mg/kg dose

Chain of Mu-opiate (P35372 whole entry): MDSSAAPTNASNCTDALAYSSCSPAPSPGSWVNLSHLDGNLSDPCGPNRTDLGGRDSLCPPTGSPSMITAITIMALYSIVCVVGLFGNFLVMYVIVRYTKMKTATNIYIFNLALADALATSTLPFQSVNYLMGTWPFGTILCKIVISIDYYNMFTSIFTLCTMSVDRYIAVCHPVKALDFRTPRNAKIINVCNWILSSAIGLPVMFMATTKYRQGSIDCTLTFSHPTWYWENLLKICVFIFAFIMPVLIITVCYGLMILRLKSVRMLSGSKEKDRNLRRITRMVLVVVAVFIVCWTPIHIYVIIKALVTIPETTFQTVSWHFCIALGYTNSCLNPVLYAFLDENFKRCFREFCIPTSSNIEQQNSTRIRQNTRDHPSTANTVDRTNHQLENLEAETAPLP
Chain of μ-Opiate Receptors (P35372 whole entry): as above

C=CCN1CC[C@]23c4c5ccc(O)c4O[C@H]2[C@H](OCCOCCOCCOCCOCCOC)CC[C@@]3(O)[C@H]1C5 [PEG5-Nal, α,β-6-CH3—(OCH2CH2)5—O-naloxol]
Normalized Brain Uptake Rate (Mean ± SD) [1]: 0.96 ± 0.36 pmole/gm brain/sec | Reduction in brain uptake rate (BUR) compared to the parent compound (factor / times) [1]: 16

C=CCN1CCC23c4c5ccc(O)c4OC2C(O)CCC3(O)C1C5 (single isomer, unassigned) [α-6-naloxol, reference compound]
EC50 (μ-Opiate Receptors; μ-opiate receptors, in-vitro): 2 nM

C=CCN1CC[C@]23c4c5ccc(O)c4O[C@H]2C(=O)CC[C@@]3(O)[C@H]1C5 [Naloxone, naloxone, reference compound]
Percentage of Active Remaining After Incubation with Liver Microsomes (0 min): 100.0% | Percentage of Active Remaining After Incubation with Liver Microsomes (20 min): 47.1% | Percentage of Active Remaining After Incubation with Liver Microsomes (40 min): 27.6% | Percentage of Active Remaining After Incubation with Liver Microsomes (60 min): 15.6% | Normalized Brain Uptake Rate (Mean ± SD) [1]: 15.64 ± 3.54 pmole/gm brain/sec

COCCOCCOCCOCCOCCNC(=O)\C=C(C)/C=C/C=C(C)/C=C/C1=C(C)CCCC1(C)C [PEG5-13-cis-RA, CH3—(OCH2CH2)5—NH-13-cis-retinamide]
Mean Plasma Concentration ± SD, 1 hr ([2]; normalized to a 6 mg/kg dose): 77.7 ± 31.6 ng/mL | Mean Plasma Concentration ± SD, 2 hr ([2]; normalized to a 6 mg/kg dose): 61.6 ± 57.1 ng/mL | Solubility [3]: soluble | Normalized Brain Uptake Rate (Mean ± SD) [1]: 58.49 ± 13.44 pmole/gm brain/sec

C=CCN1CC[C@]23c4c5ccc(O)c4O[C@H]2[C@H](OCCOCCOCCOCCOCCOC)CC[C@@]3(O)[C@H]1C5 [α-PEG5-Nal, α,β-6-CH3—(OCH2CH2)5—O-naloxol]
IC50 (Mu-opiate): 31.5 nM | Mean Plasma Concentration ± SD, 1 hr [2, 4]: 27.37 ± 10.82 ng/mL | Mean Plasma Concentration ± SD, 2 hr [2, 4]: 15.38 ± 6.65 ng/mL | EC50 (μ-Opiate Receptors): 31.5 nM | Percentage of Active Remaining After Incubation with Liver Microsomes (rat, microsomes, 0 h): 100.0% | Percentage of Active Remaining After Incubation with Liver Microsomes (rat, microsomes, 20 min): 84.1% | Percentage of Active Remaining After Incubation with Liver Microsomes (rat, microsomes, 40 min): 75.6% | Percentage of Active Remaining After Incubation with Liver Microsomes (rat, microsomes, 1 h): 69.2% | Solubility [3]: soluble

C=CCN1CC[C@]23c4c5ccc(O)c4O[C@H]2[C@H](OCCOCCOCCOCCOCCOCCOCCOC)CC[C@@]3(O)[C@H]1C5 [α-PEG7-Nal, α,β-6-CH3—(OCH2CH2)7—O-naloxol]
Mean Plasma Concentration ± SD, 1 hr [2, 4]: 40.08 ± 16.61 ng/mL | Mean Plasma Concentration ± SD, 2 hr [2, 4]: 39.51 ± 9.57 ng/mL | Percentage of Active Remaining After Incubation with Liver Microsomes (rat, microsomes, 0 h): 100.0% | Percentage of Active Remaining After Incubation with Liver Microsomes (rat, microsomes, 20 min): 87.4% | Percentage of Active Remaining After Incubation with Liver Microsomes (rat, microsomes, 40 min): 81.6% | Percentage of Active Remaining After Incubation with Liver Microsomes (rat, microsomes, 1 h): 76.9% | Solubility [3]: soluble | Normalized Brain Uptake Rate (Mean ± SD) ([1]; listed as PEG7-Nal (α isomer)): 0.94 ± 0.32 pmole/gm brain/sec

C=CCN1CC[C@]23c4c5ccc(O)c4O[C@H]2[C@@H](OCCOCCOCCOCCOCCOCCOCCOCCOCCOC)CC[C@@]3(O)[C@H]1C5 (single isomer, unassigned) [α isomer of PEG9-Nal]
IC50 (Mu-opiate; naloxone series of compounds): 64.4 nM | Solubility [3]: soluble

C=CCN1CC[C@]23c4c5ccc(O)c4O[C@H]2[C@H](OCCOCCOCCOCCOCCOCCOCCOC)CC[C@@]3(O)[C@H]1C5 [β-PEG7-Nal, α,β-6-CH3—(OCH2CH2)7—O-naloxol]
Mean Plasma Concentration ± SD, 1 hr [2, 4]: 50.41 ± 36.44 ng/mL | Mean Plasma Concentration ± SD, 2 hr [2, 4]: 50.08 ± 25.28 ng/mL | Solubility [3]: soluble | Normalized Brain Uptake Rate (Mean ± SD) [1]: 0.70 ± 0.19 pmole/gm brain/sec

C=CCN1CC[C@]23c4c5ccc(O)c4O[C@H]2C(OCCOCCOCCOC)CC[C@@]3(O)[C@H]1C5 (some centres unmarked) [PEG3-Nal, 6-CH3—(OCH2CH2)3-Naloxol]
Normalized Brain Uptake Rate (Mean ± SD) [1]: 4.67 ± 3.57 pmole/gm brain/sec

COCCOCCOCCNC(=O)\C=C(C)/C=C/C=C(C)/C=C/C1=C(C)CCCC1(C)C [PEG3-13-cis-RA, CH3(OCH2CH2)3—NH-13-cis-Retinamide]
Mean Plasma Concentration ± SD, 1 hr ([2]; normalized to a 6 mg/kg dose): 131.8 ± 55.0 ng/mL | Mean Plasma Concentration ± SD, 2 hr ([2]; normalized to a 6 mg/kg dose): 158.0 ± 133.0 ng/mL | Solubility [3]: 3.13 µM (≈ 1.39 µg/mL) | Normalized Brain Uptake Rate (Mean ± SD) [1]: 79.65 ± 20.91 pmole/gm brain/sec

C=CCN1CC[C@]23c4c5ccc(O)c4O[C@H]2[C@H](OCCOCCOCCOCCOCCOC)CC[C@@]3(O)[C@H]1C5 [β-PEG5-Nal, α,β-6-CH3—(OCH2CH2)5—O-naloxol]
IC50 (Mu-opiate; naloxone series of compounds): 43.3 nM | Mean Plasma Concentration ± SD, 1 hr [2, 4]: 69.34 ± 15.03 ng/mL | Mean Plasma Concentration ± SD, 2 hr [2, 4]: 36.92 ± 15.84 ng/mL | EC50 (μ-Opiate Receptors; μ-opiate receptors, in-vitro): 43.3 nM | Solubility [3]: soluble

C=CCN1CCC23c4c5ccc(O)c4OC2C(O)CCC3(O)C1C5 (single isomer, unassigned) [β-6-naloxol, reference compound]
EC50 (μ-Opiate Receptors; μ-opiate receptors, in-vitro): 10.8 nM

C=CCN1CC[C@]23c4c5ccc(O)c4O[C@H]2[C@H](OCCOCCOCCOCCOCCOCCOCCOC)CC[C@@]3(O)[C@H]1C5 [PEG7-Nal, α,β-6-CH3—(OCH2CH2)7—O-naloxol]
Reduction in brain uptake rate (BUR) compared to the parent compound (factor / times) [1]: 16

CC1=C(/C=C/C(C)=C/C=C/C(C)=C\C(=O)O)C(C)(C)CCC1 [13-cis-Retinoic Acid, 13-cis-retinoic acid, reference compound]
Mean Plasma Concentration ± SD, 1 hr ([2]; normalized to a 6 mg/kg dose): 43.3 ± 24.0 ng/mL | Mean Plasma Concentration ± SD, 2 hr ([2]; normalized to a 6 mg/kg dose): 23.3 ± 14.8 ng/mL | Solubility [3]: 0.47 µM (≈ 0.141 µg/mL) | Normalized Brain Uptake Rate (Mean ± SD) [1]: 102.54 ± 37.31 pmole/gm brain/sec

C=CCN1CC[C@]23c4c5ccc(O)c4O[C@H]2[C@@H](OCCOCCOCCOC)CC[C@@]3(O)[C@H]1C5 [α-PEG3-Nal, α-6-CH3—(OCH2CH2)3—O-naloxol]
IC50 (Mu-opiate): 7.3 nM | Mean Plasma Concentration ± SD, 1 hr [2, 4]: 37.28 ± 4.99 ng/mL | Mean Plasma Concentration ± SD, 2 hr [2, 4]: 14.92 ± 5.27 ng/mL | Bioactivity relative to the parent compound (μ-Opiate Receptors; from EC50 values): about 30% | EC50 (μ-Opiate Receptors; μ-opiate receptors, in-vitro): 7.3 nM | Percentage of Active Remaining After Incubation with Liver Microsomes (0 min): 100.0% | Percentage of Active Remaining After Incubation with Liver Microsomes (20 min): 64.8% | Percentage of Active Remaining After Incubation with Liver Microsomes (40 min): 51.7% | Percentage of Active Remaining After Incubation with Liver Microsomes (60 min): 45.7% | Solubility [3]: soluble

COCCOCCOCCOCCOCCOCCOCCNC(=O)\C=C(C)/C=C/C=C(C)/C=C/C1=C(C)CCCC1(C)C [PEG7-13-cis-RA, CH3—(OCH2CH2)7—NH-13-cis-Retinamide]
Mean Plasma Concentration ± SD, 1 hr ([2]; normalized to a 6 mg/kg dose): 44.0 ± 13.0 ng/mL | Mean Plasma Concentration ± SD, 2 hr ([2]; normalized to a 6 mg/kg dose): 38.7 ± 4.2 ng/mL | Solubility [3]: 58.3 µM (≈ 36.3 µg/mL) | Normalized Brain Uptake Rate (Mean ± SD) [1]: 24.15 ± 1.49 pmole/gm brain/sec | Reduction in brain uptake rate (BUR) compared to the parent compound (factor / times) [1]: four

COCCOCCOCCOCCOCCOCCOCCOCCOCCOCCOCCNC(=O)\C=C(C)/C=C/C=C(C)/C=C/C1=C(C)CCCC1(C)C [PEG11-13-cis-RA, CH3—(OCH2CH2)11—NH-13-cis-Retinamide]
Mean Plasma Concentration ± SD, 1 hr ([2]; normalized to a 6 mg/kg dose): 21.8 ± 7.1 ng/mL | Mean Plasma Concentration ± SD, 2 hr ([2]; normalized to a 6 mg/kg dose): 58.2 ± 43.5 ng/mL | Solubility [3]: soluble | Normalized Brain Uptake Rate (Mean ± SD) [1]: 17.77 ± 1.68 pmole/gm brain/sec | Reduction in brain uptake rate (BUR) compared to the parent compound (factor / times) [1]: five
